Source: ChEMBL document CHEMBL1132933, “Protease inhibitors: synthesis and QSAR study of novel classes of nonbasic thrombin inhibitors incorporating sulfonylguanidine and O-methylsulfonylisourea moieties at P1” (J Med Chem, 2000)

Columns and labels:
Trypsin = Trypsin (Homo sapiens, UniProt P07477+P07478+P35030); assay: Inhibitory activity against human trypsin (using Chromozym TH as the substrate); assay type: protein assay
Prothrombin = Prothrombin (Homo sapiens, UniProt P00734); assay: Inhibitory activity against human thrombin (using Chromozym TH as the substrate)

SMILES | Ki (Trypsin) [nM] | Ki (Prothrombin) [nM]
COC(=N)NS(=O)(=O)c1ccc(NC(=O)C2CCCN2C(=O)NS(=O)(=O)c2ccc(C)cc2)cc1 (stereo unspecified) | 1500 | 63
N=C(N)NS(=O)(=O)c1ccc(NC(=O)[C@@H](Cc2ccccc2)NC(=O)OCc2ccccc2)cc1 | 1285 | 54
Cc1ccc(S(=O)(=O)NC(=O)NCCC(=O)N[C@@H](Cc2c[nH]cn2)C(=O)Nc2ccc(S(=O)(=O)N=C(N)N)cc2)cc1 | 1350 | 15
CN(C)S(=O)(=O)N=C(N)N | 2890 | 
CN(C)c1ccc(/N=N/c2ccc(S(=O)(=O)N=C(N)N)cc2)cc1 | 1245 | 134
COC(=N)NS(=O)(=O)c1ccc([N+](=O)[O-])c(Cl)c1 | 1200 | 177
Cc1ccc(S(=O)(=O)NC(=O)N[C@@H](Cc2ccccc2)C(=O)N2CCCC2C(=O)Nc2ccc(S(=O)(=O)NN=C(N)N)cc2)cc1 (stereo partly specified) | 1450 | 10
COC(=N)NS(=O)(=O)c1ccc(OC)cc1 | 1460 | 276
N=C(N)NNS(=O)(=O)c1ccc(NC(=O)[C@@H](Cc2ccccc2)NC(=O)OCc2ccccc2)cc1 | 1315 | 50
N=C(N)NNS(=O)(=O)c1ccc(N)cc1 | 1425 | 91
N=C(N)NNS(=O)(=O)c1ccc(Br)cc1 | 1215 | 203
N=C(N)NNS(=O)(=O)c1ccc(I)cc1 | 1300 | 177
N=C(N)NNS(=O)(=O)c1ccc2ccccc2c1 | 1285 | 129
Cc1ccc(S(=O)(=O)NN=C(N)N)cc1 | 1775 | 270
N=C(N)NNS(=O)(=O)c1ccc([N+](=O)[O-])c(Cl)c1 | 1010 | 154
N=C(N)NNS(=O)(=O)c1cccc([N+](=O)[O-])c1 | 1235 | 170
CN(C)c1cccc2c(S(=O)(=O)NN=C(N)N)cccc12 | 1200 | 130
N=C(N)NS(=O)(=O)c1ccc(Cl)cc1 | 1170 | 225
N=C(N)NNS(=O)(=O)c1c(Br)c(Br)c(Br)c(Br)c1C(=O)O | 1200 | 213

SMILES | Ki (Trypsin) [nM] | Ki (Prothrombin) [nM]
CC(=O)Nc1ccc(S(=O)(=O)NN=C(N)N)cc1 | 1025 | 172
Cc1ccc(S(=O)(=O)NC(=O)N[C@H](Cc2ccccc2)C(=O)Nc2ccc(S(=O)(=O)NN=C(N)N)cc2)cc1 | 1340 | 44
COC(=N)NS(=O)(=O)c1cccc2c(N(C)C)cccc12 | 1375 | 138
CC1(C)C2CCC1(CS(=O)(=O)N=C(N)N)C(=O)C2 (stereo unspecified) | 980 | 320
N=C(N)NS(=O)(=O)c1ccccc1C(=O)O | 1445 | 240
N=C(N)NNS(=O)(=O)c1cccc2ccccc12 | 1200 | 125
N=C(N)NNS(=O)(=O)c1cccc(C(=O)O)c1 | 1520 | 112
Cc1cc(C)c(S(=O)(=O)NN=C(N)N)c(C)c1 | 1100 | 219
COC(=N)NS(=O)(=O)c1ccc([N+](=O)[O-])cc1 | 1235 | 189
N=C(N)NS(=O)(=O)c1c(F)c(F)c(F)c(F)c1F | 1350 | 146
COC(=N)NS(=O)(=O)c1ccc(F)cc1 | 1200 | 280
CC(=O)Nc1ccc(S(=O)(=O)N=C(N)N)cc1 | 1070 | 195
Cc1ccc(S(=O)(=O)NC(=O)NCC(=O)N[C@@H](Cc2c[nH]cn2)C(=O)Nc2ccc(S(=O)(=O)NN=C(N)N)cc2)cc1 | 1555 | 15
N=C(N)NS(=O)(=O)c1ccc2ccccc2c1 | 1300 | 132
CN(C)c1ccc(/N=N/c2ccc(S(=O)(=O)NN=C(N)N)cc2)cc1 | 1355 | 139
COC(=N)NS(=O)(=O)c1cccc(C(=O)O)c1 | 1595 | 197
N=C(N)NNS(=O)(=O)c1ccc(Cl)cc1 | 1100 | 212
COc1ccc(S(=O)(=O)NN=C(N)N)cc1N | 1100 | 219

Continued, values first:

Ki (Trypsin) [nM] | Ki (Prothrombin) [nM] | SMILES
1530 | 43 | Cc1ccc(S(=O)(=O)NC(=O)N2CCCC2C(=O)Nc2ccc(S(=O)(=O)NN=C(N)N)cc2)cc1 (stereo unspecified)
1550 | 170 | COC(=N)NS(=O)(=O)c1cc(Cl)cc(Cl)c1O
2100 | 520 | N=C(N)NS(=O)(=O)C(F)(F)C(F)(F)C(F)(F)C(F)(F)F
1415 | 243 | COC(=N)NS(=O)(=O)c1ccc(I)cc1
990 | 166 | N=C(N)NNS(=O)(=O)c1ccc([N+](=O)[O-])cc1
1400 | 21 | Cc1ccc(S(=O)(=O)NC(=O)N2CCC[C@H]2C(=O)NCC(=O)Nc2ccc(S(=O)(=O)N=C(N)N)cc2)cc1
1315 | 12 | Cc1ccc(S(=O)(=O)NC(=O)N[C@@H](Cc2ccccc2)C(=O)N2CCCC2C(=O)Nc2ccc(S(=O)(=O)N=C(N)N)cc2)cc1 (stereo partly specified)
1800 | 324 | N=C(N)NNS(=O)(=O)c1ccccc1[N+](=O)[O-]
540 |  | N=C(N)NCCCNC(=O)[C@@H]1CCCCN1C(=O)C(CC1CCCCC1)NCC(=O)O (stereo partly specified)
1250 | 225 | N=C(N)NS(=O)(=O)c1c(Br)c(Br)c(Br)c(Br)c1C(=O)O
2180 | 565 | COC(=N)NS(=O)(=O)C(F)(F)C(F)(F)C(F)(F)C(F)(F)F
1425 | 154 | COC(=N)NS(=O)(=O)c1cccc2ccccc12
1400 | 205 | N=C(N)NNS(=O)(=O)c1ccccc1C(=O)O
990 | 160 | N=C(N)NS(=O)(=O)c1ccc([N+](=O)[O-])c(Cl)c1
1350 | 169 | COC(=N)NS(=O)(=O)c1ccc(/N=N/c2ccc(N(C)C)cc2)cc1
1425 | 62 | COC(=N)NS(=O)(=O)c1ccc(NC(=O)[C@@H](Cc2ccccc2)NC(=O)OCc2ccccc2)cc1
1275 | 890 | N=C(N)NS(=O)(=O)C(F)(F)F
1900 | 450 | COC(=N)NS(=O)(=O)Cc1ccccc1
1230 | 220 | N=C(N)NS(=O)(=O)c1ccc(Br)cc1
1235 | 96 | COC(=N)NS(=O)(=O)c1ccc(OC)c(N)c1
1810 | 290 | Cc1ccc(S(=O)(=O)N=C(N)N)cc1
1455 | 18 | Cc1ccc(S(=O)(=O)NC(=O)NCC(=O)N[C@@H](Cc2c[nH]cn2)C(=O)Nc2ccc(S(=O)(=O)N=C(N)N)cc2)cc1
1300 | 239 | COC(=N)NS(=O)(=O)c1c(Br)c(Br)c(Br)c(Br)c1C(=O)O
1540 | 27 | COC(=N)NS(=O)(=O)c1ccc(NC(=O)CNC(=O)[C@@H]2CCCN2C(=O)NS(=O)(=O)c2ccc(C)cc2)cc1
1445 | 147 | COC(=N)NS(=O)(=O)c1ccc2ccccc2c1

Ki (Trypsin) [nM] | Ki (Prothrombin) [nM] | SMILES
1850 | 320 | N=C(N)NS(=O)(=O)c1ccccc1[N+](=O)[O-]
2135 | 403 | COC(=N)NS(=O)(=O)C(F)(F)C(F)(F)C(F)(F)C(F)(F)C(F)(F)C(F)(F)C(F)(F)C(F)(F)F
1500 | 121 | N=C(N)NS(=O)(=O)c1cccc(C(=O)O)c1
1370 | 99 | COC(=N)NS(=O)(=O)c1cccc(N)c1
1320 | 185 | N=C(N)NS(=O)(=O)c1cccs1
2340 | 355 | COC(=N)NS(=O)(=O)c1ccccc1[N+](=O)[O-]
1335 | 97 | N=C(N)NNS(=O)(=O)c1ccc(C(=O)O)cc1
1375 | 213 | COC(=N)NS(=O)(=O)c1cccc([N+](=O)[O-])c1
1420 | 18 | COC(=N)NS(=O)(=O)c1ccc(NC(=O)C2CCCN2C(=O)[C@H](Cc2ccccc2)NC(=O)NS(=O)(=O)c2ccc(C)cc2)cc1 (stereo partly specified)
1250 | 43 | Cc1ccc(S(=O)(=O)NC(=O)N[C@H](Cc2ccccc2)C(=O)Nc2ccc(S(=O)(=O)N=C(N)N)cc2)cc1
3300 | 1360 | COC(=N)NS(=O)(=O)N(C)C
1340 | 133 | COC(=N)NS(=O)(=O)c1ccc(C(=O)O)cc1
1450 | 895 | COC(=N)NS(=O)(=O)C(F)(F)F
1950 | 360 | N=C(N)NS(=O)(=O)C(F)(F)C(F)(F)C(F)(F)C(F)(F)C(F)(F)C(F)(F)C(F)(F)C(F)(F)F
1145 | 107 | N=C(N)NS(=O)(=O)c1cccc(N)c1
1230 | 136 | N=C(N)NS(=O)(=O)c1cccc2ccccc12
1100 | 190 | N=C(N)NS(=O)(=O)c1cccc([N+](=O)[O-])c1
1400 |  | N=C(N)NNS(=O)(=O)c1ccc(NC(=O)C2CCCN2C(=O)[C@H](Cc2ccccc2)NC(=O)OCc2ccccc2)cc1 (stereo partly specified)
1425 | 153 | COC(=N)NS(=O)(=O)c1c(F)c(F)c(F)c(F)c1F
1235 | 104 | N=C(N)NS(=O)(=O)c1ccc(C(=O)O)cc1
1350 | 330 | N=C(N)NS(=O)(=O)Cc1ccccc1
975 | 180 | N=C(N)NS(=O)(=O)c1ccc([N+](=O)[O-])cc1
1090 | 240 | N=C(N)NS(=O)(=O)c1ccc(F)cc1
1785 | 348 | COC(=N)NS(=O)(=O)c1c(C)cc(C)cc1C
1345 | 202 | COC(=N)NS(=O)(=O)c1ccc(NC(C)=O)cc1
